Source: ChEMBL document CHEMBL3301562, “MMV Box screening against Plasmodium falciparum protein kinases and aminoacyl tRNA synthetases”

Legend:
Type in all cases: functional
[1] = biological target: T1, Calcium-dependent protein kinase 4 (Plasmodium falciparum (isolate 3D7), UniProt Q8IBS5); assay: MMV: CDPK4 Protein kinase inhibition assay using recombinant PfCDPK4, syntide2 peptide substrate, ATP and KinaseGlo to measure % inhibition at 1 uM MMV box compound.
T1 sequence (Q8IBS5 whole entry): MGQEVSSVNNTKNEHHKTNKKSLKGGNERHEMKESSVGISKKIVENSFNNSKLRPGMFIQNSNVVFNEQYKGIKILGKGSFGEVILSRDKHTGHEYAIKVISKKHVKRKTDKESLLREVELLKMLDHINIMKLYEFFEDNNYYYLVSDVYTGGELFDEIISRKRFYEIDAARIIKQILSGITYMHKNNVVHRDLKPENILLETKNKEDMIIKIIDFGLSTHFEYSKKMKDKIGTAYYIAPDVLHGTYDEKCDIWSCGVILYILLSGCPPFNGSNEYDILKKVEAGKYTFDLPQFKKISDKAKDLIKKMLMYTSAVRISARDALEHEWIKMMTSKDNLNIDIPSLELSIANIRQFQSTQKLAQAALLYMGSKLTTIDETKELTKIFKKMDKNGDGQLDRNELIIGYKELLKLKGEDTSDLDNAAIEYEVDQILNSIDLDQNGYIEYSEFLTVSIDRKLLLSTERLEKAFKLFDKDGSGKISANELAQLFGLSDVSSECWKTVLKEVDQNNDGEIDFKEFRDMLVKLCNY

Lysine--tRNA ligase = Lysine--tRNA ligase (Plasmodium falciparum (isolate 3D7), UniProt Q8IDJ8); assay: MMV: KRS recombinant Plasmodium falciparum Lysyl-tRNA-synthetase, assay with yeast tRNA, ATP, and lysine and 3 uM MMV malaria box compound, assay read out with kinase glo as % inhibition.
Chain of Lysine--tRNA ligase (Q8IDJ8 whole entry): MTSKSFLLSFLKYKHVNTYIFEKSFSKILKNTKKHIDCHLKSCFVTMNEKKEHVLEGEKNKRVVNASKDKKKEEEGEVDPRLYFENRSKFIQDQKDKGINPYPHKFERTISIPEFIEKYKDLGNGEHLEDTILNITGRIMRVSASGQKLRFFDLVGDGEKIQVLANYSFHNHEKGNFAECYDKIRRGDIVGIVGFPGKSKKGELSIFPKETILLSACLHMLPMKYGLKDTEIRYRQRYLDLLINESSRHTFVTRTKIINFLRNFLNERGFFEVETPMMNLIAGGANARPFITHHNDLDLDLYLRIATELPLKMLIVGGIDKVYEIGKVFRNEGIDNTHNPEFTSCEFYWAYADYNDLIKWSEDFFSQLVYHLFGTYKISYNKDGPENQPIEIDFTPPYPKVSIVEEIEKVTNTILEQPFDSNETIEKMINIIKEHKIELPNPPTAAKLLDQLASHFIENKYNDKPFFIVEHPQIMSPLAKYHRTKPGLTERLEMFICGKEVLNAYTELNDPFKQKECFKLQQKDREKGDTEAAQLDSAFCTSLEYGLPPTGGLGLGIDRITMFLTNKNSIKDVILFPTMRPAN

[2] = biological target: T2, Mitogen-activated protein kinase (Plasmodium falciparum, UniProt Q25917); assay: Final concentrations were 1 uM ATP, 0.5 mM DTT, 1 mM MgCl2, 0.5 mg/mL BSA, and 10 ug/ml MAP2 in a buffer of 50 mM HEPES (pH 7.0). 0.5 mg/mL histone III-S served as the substrate (13); 100 uM AMP-PNP, an ATP analog, was used as a control inhibitor. Incubation time was 4 hours.
T2 sequence (Q25917 whole entry): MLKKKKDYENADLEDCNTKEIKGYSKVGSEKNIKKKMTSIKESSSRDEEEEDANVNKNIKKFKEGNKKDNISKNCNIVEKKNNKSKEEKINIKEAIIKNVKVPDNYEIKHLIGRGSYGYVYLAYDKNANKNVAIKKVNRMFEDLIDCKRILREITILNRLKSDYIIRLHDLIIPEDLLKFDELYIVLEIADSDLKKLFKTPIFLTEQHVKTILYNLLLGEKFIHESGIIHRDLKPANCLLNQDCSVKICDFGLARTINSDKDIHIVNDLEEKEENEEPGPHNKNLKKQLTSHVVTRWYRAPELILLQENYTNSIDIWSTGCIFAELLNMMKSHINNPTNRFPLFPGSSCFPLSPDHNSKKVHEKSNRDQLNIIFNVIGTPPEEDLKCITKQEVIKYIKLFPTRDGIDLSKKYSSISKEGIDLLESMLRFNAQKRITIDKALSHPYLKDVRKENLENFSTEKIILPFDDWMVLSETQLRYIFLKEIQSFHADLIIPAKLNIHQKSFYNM

[3] = biological target: T3, Cdk-related protein kinase 6 (Plasmodium falciparum, UniProt O77239); assay: Final concentrations were 1.5 uM ATP, 5 mM MnCl2, and 15 ug/ml PK6 in a buffer of 100 mM Tris-HCl (pH 7.5). 50 ug/mL MBP was provided as the substrate; 10 uM staurosporine was used as a control inhibitor. Incubation time was 3 hours and 40 minutes.The catalytic activity of each kinase was considered proportional to ATP consumed, as determined from measurements of residual [ATP] with the luciferase-based reagent Kinase-Glo (Promega) following incubation. Luminescence (proportional to residual [ATP]) was measured on the plate readers FLx800 (BioTek Instruments, Winooski, VT, USA) and MicroBeta2.
T3 sequence (O77239 whole entry): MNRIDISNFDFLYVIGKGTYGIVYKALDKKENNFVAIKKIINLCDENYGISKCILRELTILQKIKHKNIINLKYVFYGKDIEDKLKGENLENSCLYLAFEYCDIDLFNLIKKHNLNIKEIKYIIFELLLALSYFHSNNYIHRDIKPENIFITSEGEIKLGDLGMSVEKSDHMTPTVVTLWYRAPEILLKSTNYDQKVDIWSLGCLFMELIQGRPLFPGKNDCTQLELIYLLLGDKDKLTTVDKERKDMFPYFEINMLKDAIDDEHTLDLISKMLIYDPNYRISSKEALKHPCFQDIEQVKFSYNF

[4] = biological target: Calcium-dependent protein kinase 1 (Plasmodium falciparum, UniProt P62344); assay: MMV: CDPK1 Protein kinase inhibition assay using recombinant PfCDPK1, syntide 2 peptide substrate, ATP and KinaseGlo to measure % inhibition at 1 uM MMV box compound.
Chain of Calcium-dependent protein kinase 1 (P62344 whole entry): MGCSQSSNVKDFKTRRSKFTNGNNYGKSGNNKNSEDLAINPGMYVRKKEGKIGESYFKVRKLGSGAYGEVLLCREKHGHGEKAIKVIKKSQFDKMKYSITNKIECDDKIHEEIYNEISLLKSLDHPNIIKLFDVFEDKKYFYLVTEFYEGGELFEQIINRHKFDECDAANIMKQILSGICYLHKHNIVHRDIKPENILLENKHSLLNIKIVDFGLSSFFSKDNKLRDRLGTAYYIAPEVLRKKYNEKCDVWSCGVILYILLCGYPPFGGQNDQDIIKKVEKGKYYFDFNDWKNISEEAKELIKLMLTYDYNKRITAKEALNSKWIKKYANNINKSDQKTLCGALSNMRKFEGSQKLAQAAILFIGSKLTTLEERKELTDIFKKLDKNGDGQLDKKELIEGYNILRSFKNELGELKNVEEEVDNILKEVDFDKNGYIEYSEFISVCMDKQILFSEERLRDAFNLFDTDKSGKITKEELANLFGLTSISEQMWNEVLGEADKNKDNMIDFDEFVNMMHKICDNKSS

Proline--tRNA ligase = biological target: T4, Proline--tRNA ligase (Plasmodium falciparum (isolate 3D7), UniProt Q8I5R7); assay: MMV: ProRS recombinant Plasmodium falciparum Prolyl-tRNA-synthetase, assay with yeast tRNA, ATP, and proline and 3 uM MMV malaria box compound, assay read out with kinase glo as % inhibition.
T4 sequence (Q8I5R7 whole entry): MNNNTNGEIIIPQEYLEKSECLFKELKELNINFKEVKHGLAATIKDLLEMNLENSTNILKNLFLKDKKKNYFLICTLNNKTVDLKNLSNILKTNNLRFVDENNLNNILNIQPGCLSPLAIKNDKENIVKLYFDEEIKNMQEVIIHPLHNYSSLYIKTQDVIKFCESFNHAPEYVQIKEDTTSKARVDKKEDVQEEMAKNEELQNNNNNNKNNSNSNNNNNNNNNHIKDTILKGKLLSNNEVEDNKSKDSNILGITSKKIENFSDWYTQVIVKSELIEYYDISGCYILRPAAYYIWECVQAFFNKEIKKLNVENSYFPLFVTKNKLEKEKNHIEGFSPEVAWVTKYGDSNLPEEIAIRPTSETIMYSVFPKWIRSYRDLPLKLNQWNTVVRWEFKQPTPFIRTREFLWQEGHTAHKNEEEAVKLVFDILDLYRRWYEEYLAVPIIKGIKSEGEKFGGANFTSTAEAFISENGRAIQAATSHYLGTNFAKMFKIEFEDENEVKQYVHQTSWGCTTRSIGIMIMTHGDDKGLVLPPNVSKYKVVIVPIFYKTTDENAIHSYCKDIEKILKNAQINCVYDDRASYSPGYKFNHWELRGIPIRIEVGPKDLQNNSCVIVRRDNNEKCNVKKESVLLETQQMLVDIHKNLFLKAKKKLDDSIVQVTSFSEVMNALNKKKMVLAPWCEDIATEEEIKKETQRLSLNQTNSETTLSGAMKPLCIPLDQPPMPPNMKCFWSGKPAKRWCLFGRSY

[5] = biological target: T5, Putative uncharacterized protein pk7 (Plasmodium falciparum, UniProt O96214); assay: Final concentrations were 1 uM ATP, 2 mM DTT, 20 mM MgCl2, 2 mM MnCl2, 0.01% BSA, and 6 ug/ml PK7, in a buffer of 20 mM Tris-HCl (pH 7.5). The enzyme itself was the only substrate present (since autophosphorylation occurs); 100 uM 1NA-PP1 was used as a control inhibitor. Incubation time was 3 hours.
T5 sequence (O96214 whole entry): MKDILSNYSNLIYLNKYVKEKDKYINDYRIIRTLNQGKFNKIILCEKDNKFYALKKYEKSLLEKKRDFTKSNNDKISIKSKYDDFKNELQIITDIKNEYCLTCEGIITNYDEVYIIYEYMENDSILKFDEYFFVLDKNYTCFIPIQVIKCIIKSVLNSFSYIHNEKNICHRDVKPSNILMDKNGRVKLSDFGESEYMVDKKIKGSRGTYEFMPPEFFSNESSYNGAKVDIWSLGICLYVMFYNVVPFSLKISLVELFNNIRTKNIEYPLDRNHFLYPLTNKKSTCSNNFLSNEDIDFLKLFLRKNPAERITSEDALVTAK

With `CCN1CCCC1CNc1[nH]cnc2c3cc(Cl)ccc3nc1-2` (stereo unspecified) the IC50 [1] was > 1000 nM, the IC50 (Lysine--tRNA ligase) was > 2500 nM and the IC50 [2] was > 1000 nM. For the same compound, the IC50 [3] was > 1000 nM, the IC50 [4] was > 1000 nM and the IC50 (Proline--tRNA ligase) was > 2500 nM. For the same compound, the IC50 [5] was > 1000 nM.

`CCOC(=O)c1cnc2ccc(CC)cc2c1O` was tested, and the IC50 [1] was > 1000 nM, the IC50 (Lysine--tRNA ligase) was > 2500 nM and the IC50 [2] was > 1000 nM. For the same compound, the IC50 [3] was > 1000 nM, the IC50 [4] was > 1000 nM and the IC50 (Proline--tRNA ligase) was > 2500 nM. For the same compound, the IC50 [5] was > 1000 nM.

`COc1ccc(-n2ccnc2SCC(=O)Nc2cc(C)ccc2C)c(OC)c1` was tested, and the IC50 [1] was > 1000 nM, the IC50 (Lysine--tRNA ligase) was > 2500 nM and the IC50 [2] was > 1000 nM. For the same compound, the IC50 [3] was > 1000 nM, the IC50 [4] was > 1000 nM and the IC50 (Proline--tRNA ligase) was > 2500 nM. For the same compound, the IC50 [5] was > 1000 nM.

In the case of `CCN1CCN(Cc2ccc(NC(=O)c3cc4ccc5cccnc5c4[nH]3)cc2)CC1`, the IC50 [1] is reported as > 1000 nM, the IC50 (Lysine--tRNA ligase) is reported as > 2500 nM and the IC50 [2] is reported as > 1000 nM. For the same compound, the IC50 [3] was > 1000 nM, the IC50 [4] was > 1000 nM and the IC50 (Proline--tRNA ligase) was > 2500 nM. The IC50 [5] was > 1000 nM.

`CCOc1cc2c(cc1OCC)C(c1cc(OC)c(O)cc1Cl)NCC2` (stereo unspecified) was tested, and the IC50 [1] was > 1000 nM, the IC50 (Lysine--tRNA ligase) was > 2500 nM and the IC50 [2] was > 1000 nM. The IC50 [3] was > 1000 nM, the IC50 [4] was > 1000 nM and the IC50 (Proline--tRNA ligase) was > 2500 nM. The IC50 [5] was > 1000 nM.

For `COc1cccc(C=Cc2nc(=O)c3ccccc3o2)c1OC`, the IC50 [1] was > 1000 nM, the IC50 (Lysine--tRNA ligase) was > 2500 nM and the IC50 [2] was > 1000 nM. The IC50 [3] was > 1000 nM, the IC50 [4] was > 1000 nM and the IC50 (Proline--tRNA ligase) was > 2500 nM. For the same compound, the IC50 [5] was > 1000 nM.

With `COc1ccc2c(c1)OC(O)(C(F)(F)C(F)(F)F)CC2=O` (stereo unspecified) the IC50 [1] was > 1000 nM, the IC50 (Lysine--tRNA ligase) was > 2500 nM and the IC50 [2] was > 1000 nM. The IC50 [3] was > 1000 nM, the IC50 [4] was > 1000 nM and the IC50 (Proline--tRNA ligase) was > 2500 nM. For the same compound, the IC50 [5] was > 1000 nM.

`c1ccc2cc3c(Nc4ccc(N5CCOCC5)cc4)ccnc3cc2c1` was tested, and the IC50 [1] was > 1000 nM, the IC50 (Lysine--tRNA ligase) was > 2500 nM and the IC50 [2] was > 1000 nM. The IC50 [3] was > 1000 nM, the IC50 [4] was > 1000 nM and the IC50 (Proline--tRNA ligase) was > 2500 nM. For the same compound, the IC50 [5] was > 1000 nM.
